# Reference: ChEMBL document CHEMBL1201862, “PubChem BioAssay data set” (2004)
# Calls of active or inactive are those of the source.
# Experiments:
# [1] = P. falciparum 3D7-ScDHODH growth inhibitors, dose response, SYBR Green, dry powder samples (AID 1159570); assay type: functional, cell-based;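 note: parasite growth measured after 72 hours of compound exposure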
# [2] = HepG2 cell cytotoxicity, dose response, cytotoxicity control, plate reader, dry powder samples (AID 1159569); assay type: functional, cell-based;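 note: inhibitor potency with signal falling toward the positive control level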
# [3] = P. falciparum Dd2 growth inhibitors, dose response, SYBR Green, cherry-picked samples (AID 1159567); assay type: functional, cell-based
# [4] = P. falciparum ATP4 D1247Y mutant growth inhibitors, dose response, NITD609-resistant line, SYBR Green, dry powder (AID 1159571); assay type: functional, cell-based;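 note: parasites synchronized at ring stage by sorbitol before testing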
# [5] = P. falciparum Dd2 growth inhibitors, dose response, SYBR Green, dry powder samples (AID 1159566); assay type: functional, cell-based;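 note: potency for growth inhibition with lower SYBR green DNA signal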
# [6] = Jurkat T cell cytotoxicity, dose response, cytotoxicity control for P. falciparum gametocyte viability project, luminescence (AID 1117277); assay type: functional, cell-based;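 note: potency reflects loss of cellular ATP meaning fewer viable cells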
# [7] = Luminescence Cell-Based Dose Confirmation HTS to Identify Inhibitors of Platelet Dense Granule Release. [Related pubchem assays: 1663 (Primary HTS), 1678 (Summary of Project)]; assay type: functional
# [8] = molecular target: Luciferin 4-monooxygenase (Photinus pyralis, UniProt P08659); test: firefly luciferase enzyme inhibitors, dose response, biochemical, luminescence (AID 1891)
# Sequence of Luciferin 4-monooxygenase (P08659 whole entry): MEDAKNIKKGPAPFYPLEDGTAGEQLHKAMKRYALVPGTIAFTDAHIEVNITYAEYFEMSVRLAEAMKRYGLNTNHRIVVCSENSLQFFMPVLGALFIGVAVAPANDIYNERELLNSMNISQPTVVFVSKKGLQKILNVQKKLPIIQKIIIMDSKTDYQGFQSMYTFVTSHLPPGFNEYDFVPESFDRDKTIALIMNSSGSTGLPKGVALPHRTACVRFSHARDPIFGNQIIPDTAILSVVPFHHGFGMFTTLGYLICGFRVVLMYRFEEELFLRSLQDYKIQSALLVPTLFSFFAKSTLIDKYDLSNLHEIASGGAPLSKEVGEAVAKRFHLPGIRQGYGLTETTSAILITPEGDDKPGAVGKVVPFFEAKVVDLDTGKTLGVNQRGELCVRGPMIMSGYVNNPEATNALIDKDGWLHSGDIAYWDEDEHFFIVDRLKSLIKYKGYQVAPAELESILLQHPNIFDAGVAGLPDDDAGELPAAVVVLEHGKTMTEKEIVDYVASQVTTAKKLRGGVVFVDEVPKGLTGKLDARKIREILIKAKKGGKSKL
# [9] = P. falciparum late gametocyte killing, dose response, luminescence (AID 1117278); assay type: functional, cell-based;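 note: gametocytes exposed to compound for 24 hours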
# [10] = test system: Streptococcus sp. 'group A'; test: growth inhibition of control SK(-) GAS strain, dose response, counter-screen for streptokinase expression inhibitor project, luminescence, kanamycin, BacTiterGlo, confirmation (AID 1900); assay type: functional, organism-based
# Streptococcus = test: Group A Streptococcus viability loss, dose response, counter-screen for streptokinase expression inhibitor project, luminescence, BacTiterGlo (AID 1915); assay type: functional, organism-based;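 note: potency for reduction of bacterial viability or growth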
# [11] = THP-1 cell cytotoxicity, dose response, cytotoxicity control for Vif-APOBEC3G degradation inhibitor project, THP-1 cells (AID 1117359); assay type: functional; settings: Human immunodeficiency virus 1, THP-1
# Streptokinase A = molecular target: T1, Streptokinase A (Streptococcus pyogenes serotype M1, UniProt P10520); test: S. pyogenes streptokinase expression inhibitors, potency, dose response, plasminogen activation absorbance, OD405 (AID 1914); assay type: functional, Streptococcus pyogenes M1 GAS;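 note: secreted streptokinase activity via plasminogen activation per viability signal from cell pellet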
# T1 sequence (P10520 whole entry): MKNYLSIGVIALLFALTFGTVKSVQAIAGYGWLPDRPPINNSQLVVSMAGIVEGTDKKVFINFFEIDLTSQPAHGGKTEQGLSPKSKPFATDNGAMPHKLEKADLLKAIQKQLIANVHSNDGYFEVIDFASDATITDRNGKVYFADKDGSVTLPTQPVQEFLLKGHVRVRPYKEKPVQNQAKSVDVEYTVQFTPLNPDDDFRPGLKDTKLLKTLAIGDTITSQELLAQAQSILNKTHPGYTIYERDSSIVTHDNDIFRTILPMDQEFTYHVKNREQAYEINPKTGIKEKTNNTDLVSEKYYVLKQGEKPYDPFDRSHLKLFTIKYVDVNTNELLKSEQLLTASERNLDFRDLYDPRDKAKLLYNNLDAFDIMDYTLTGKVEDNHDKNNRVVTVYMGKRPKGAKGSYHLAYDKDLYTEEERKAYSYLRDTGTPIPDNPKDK
# HEK293 [12] = test: NOD2 signaling inhibitors in MDP-stimulated cells, cell-based, uHTS, luminescence (AID 2001); assay type: functional; settings: Homo sapiens
# HEK293 [13] = test: cells; assay type: functional, cell-based; settings: Homo sapiens
# HEK293 [14] = test: NOD1 signaling inhibitors, primary screen, cell-based, luminescence, uHTS (AID 1578); assay type: functional; settings: Homo sapiens
# fMet-Leu-Phe receptor = molecular target: T2, fMet-Leu-Phe receptor (Homo sapiens, UniProt P21462); test: FPR ligands, dose response (AID 519); assay type: functional
# T2 sequence (P21462 whole entry): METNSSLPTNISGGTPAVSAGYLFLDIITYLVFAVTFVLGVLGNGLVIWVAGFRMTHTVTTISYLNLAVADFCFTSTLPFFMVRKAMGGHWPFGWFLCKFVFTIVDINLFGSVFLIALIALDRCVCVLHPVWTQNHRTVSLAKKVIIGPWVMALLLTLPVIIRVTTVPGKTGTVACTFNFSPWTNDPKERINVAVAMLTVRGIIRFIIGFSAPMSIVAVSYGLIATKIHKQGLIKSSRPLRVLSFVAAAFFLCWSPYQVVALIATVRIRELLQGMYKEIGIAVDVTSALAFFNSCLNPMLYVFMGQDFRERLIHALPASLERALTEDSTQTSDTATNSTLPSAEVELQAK
# Beta-galactosidase = Beta-galactosidase (Escherichia coli, UniProt Q8VNN2); test: beta-galactosidase enzyme inhibitors and activators, dose response, artefact control for CCR6 antagonist project, biochemical, E. coli enzyme, set 3 (AID 504712); assay type: functional
# Sequence of Beta-galactosidase (Q8VNN2 whole entry): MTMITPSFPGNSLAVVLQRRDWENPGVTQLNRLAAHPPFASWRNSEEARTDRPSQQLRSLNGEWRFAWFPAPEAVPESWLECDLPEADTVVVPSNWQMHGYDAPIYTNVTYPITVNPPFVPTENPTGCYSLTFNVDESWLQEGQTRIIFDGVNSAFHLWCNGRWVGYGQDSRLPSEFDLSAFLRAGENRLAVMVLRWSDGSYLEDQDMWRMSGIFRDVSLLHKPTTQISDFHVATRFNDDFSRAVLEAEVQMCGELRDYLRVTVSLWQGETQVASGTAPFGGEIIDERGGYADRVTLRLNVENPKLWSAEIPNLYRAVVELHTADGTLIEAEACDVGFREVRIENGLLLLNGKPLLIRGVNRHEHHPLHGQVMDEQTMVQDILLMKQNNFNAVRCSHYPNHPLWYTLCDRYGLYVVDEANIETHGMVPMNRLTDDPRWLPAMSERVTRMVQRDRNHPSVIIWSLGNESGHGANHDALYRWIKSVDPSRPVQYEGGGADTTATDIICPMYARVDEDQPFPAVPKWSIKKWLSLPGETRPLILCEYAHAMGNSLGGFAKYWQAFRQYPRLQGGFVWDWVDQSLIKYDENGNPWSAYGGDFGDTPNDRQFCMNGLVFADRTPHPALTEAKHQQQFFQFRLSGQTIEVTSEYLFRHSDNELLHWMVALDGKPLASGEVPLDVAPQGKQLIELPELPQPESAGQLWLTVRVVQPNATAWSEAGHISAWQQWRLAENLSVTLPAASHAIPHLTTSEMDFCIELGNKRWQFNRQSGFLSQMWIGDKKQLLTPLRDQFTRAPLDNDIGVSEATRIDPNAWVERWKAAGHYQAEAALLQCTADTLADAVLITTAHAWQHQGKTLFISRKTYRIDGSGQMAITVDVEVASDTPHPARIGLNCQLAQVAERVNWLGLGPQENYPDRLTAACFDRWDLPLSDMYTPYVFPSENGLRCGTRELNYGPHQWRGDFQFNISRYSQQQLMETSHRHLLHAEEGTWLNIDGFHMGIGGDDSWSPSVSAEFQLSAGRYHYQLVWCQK
# HEK293 [15] = test: cells; assay type: functional, cell-based; settings: Homo sapiens; remark: listed apart in the source
# [16] = cytotoxicity toward NIH3T3 fibroblasts, dose response, counter-screen, cell-based, ATP luminescence, mouse fibroblasts (AID 2010); assay type: functional;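 note: cells exposed to compound for about 90 hours before reading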
# cells [17] = test: cells
# [18] = inhibitors of intracellular T. cruzi replication, confirmation, NIH3T3 host cells, beta-gal luminescence (AID 2044); assay type: functional, cell-based;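 note: intracellular parasites grown in NIH/3T3 mouse fibroblasts as host cells; luminescent beta-galactosidase reporter signal from transgenic T. cruzi replicating inside host cells; inhibitors lower the luminescence signal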
# Galanin receptor type 3 = molecular target: T3, Galanin receptor type 3 (Homo sapiens, UniProt O60755); test: Fluorescence-based cell-based primary high throughput dose response assay to identify antagonists of the Galanin Receptor 3 (GalR3).; assay type: functional
# T3 sequence (O60755 whole entry): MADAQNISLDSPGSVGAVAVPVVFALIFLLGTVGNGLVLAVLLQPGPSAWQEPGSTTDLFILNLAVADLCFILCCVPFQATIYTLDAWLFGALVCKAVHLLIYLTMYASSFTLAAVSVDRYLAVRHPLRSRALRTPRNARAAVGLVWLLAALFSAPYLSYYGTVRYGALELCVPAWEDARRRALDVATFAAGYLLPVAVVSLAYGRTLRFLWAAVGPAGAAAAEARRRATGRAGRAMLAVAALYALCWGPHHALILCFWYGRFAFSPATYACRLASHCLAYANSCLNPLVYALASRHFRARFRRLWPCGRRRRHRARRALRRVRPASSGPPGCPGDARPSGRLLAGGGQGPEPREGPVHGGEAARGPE
# [19] = molecular target: T4, COUP transcription factor 2 (Homo sapiens, UniProt P24468); test: Luminescence-based cell-based high throughput dose response assay to identify inhibitors of COUP-TFII (NR2F2).; assay type: functional;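 note: HEK293 cells transiently cotransfected with COUP-TFII expression vector and reporter; luciferase reporter luminescence driven by COUP-TFII from the pX2-168 reporter plasmid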
# T4 sequence (P24468 whole entry): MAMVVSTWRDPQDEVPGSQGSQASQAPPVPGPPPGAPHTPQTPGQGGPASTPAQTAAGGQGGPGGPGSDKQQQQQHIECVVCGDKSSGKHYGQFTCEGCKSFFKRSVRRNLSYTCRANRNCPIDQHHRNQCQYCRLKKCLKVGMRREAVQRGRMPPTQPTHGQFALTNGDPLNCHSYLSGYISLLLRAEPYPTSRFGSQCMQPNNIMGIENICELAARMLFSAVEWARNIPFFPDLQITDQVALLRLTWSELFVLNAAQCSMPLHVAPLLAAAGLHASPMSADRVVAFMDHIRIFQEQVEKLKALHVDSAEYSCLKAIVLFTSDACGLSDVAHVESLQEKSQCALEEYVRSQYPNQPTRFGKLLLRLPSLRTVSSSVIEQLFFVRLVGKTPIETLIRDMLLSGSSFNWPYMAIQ
# [20] = LGR2 antagonists, dose response, cell-based, HEK293, CRE-luciferase reporter, cherry pick, set 2 (AID 743343); assay type: functional;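 note: transfected cells were stimulated with diluted bursicon conditioned medium after compound addition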
# [21] = A549 cell cytotoxicity, dose response, cytotoxicity control, plate reader, cherry-pick, antagonist series (AID 743412); assay type: functional, cell-based
# cells [22] = assay type: functional, cell-based; settings: HEK-CNG
# [23] = HepG2 cell cytotoxicity, dose response, cytotoxicity control, plate reader, cherry-pick, antagonist series (AID 743416); assay type: functional, cell-based
# [24] = MC4R antagonists, dose response, counter-screen for LGR2 antagonist project, cell-based, plate reader, cherry pick (AID 743444); assay type: functional;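 note: transfected HEK 293 cells stimulated with alpha-MSH peptide; potency of inhibitors of the alpha-MSH evoked signal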
# Steroidogenic factor 1 = Steroidogenic factor 1 (Homo sapiens, UniProt Q13285); test: Counterscreen for inverse agonists of the liver receptor homolog-1 (LRH-1; NR5A2): Luminescence-based cell-based high throughput dose response assay to identify inverse agonists of the Steroidogenic Factor 1 Nuclear Receptor (SF1; NR5A1).; assay type: functional
# Sequence of Steroidogenic factor 1 (Q13285 whole entry): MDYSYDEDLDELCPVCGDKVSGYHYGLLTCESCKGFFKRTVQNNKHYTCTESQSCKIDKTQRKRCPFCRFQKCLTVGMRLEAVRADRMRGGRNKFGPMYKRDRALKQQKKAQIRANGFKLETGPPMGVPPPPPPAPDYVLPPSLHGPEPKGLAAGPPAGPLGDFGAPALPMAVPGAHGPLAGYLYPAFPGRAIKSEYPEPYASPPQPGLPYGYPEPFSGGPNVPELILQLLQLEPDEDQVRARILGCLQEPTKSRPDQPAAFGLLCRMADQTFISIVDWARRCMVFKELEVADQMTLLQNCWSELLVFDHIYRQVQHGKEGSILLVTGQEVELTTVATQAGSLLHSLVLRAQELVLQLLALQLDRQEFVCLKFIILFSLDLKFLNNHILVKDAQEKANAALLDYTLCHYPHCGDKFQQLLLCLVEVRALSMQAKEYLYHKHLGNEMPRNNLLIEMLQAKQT
# [25] = molecular target: Nuclear receptor subfamily 5 group A member 2 (Homo sapiens, UniProt O00482); assay type: functional, cell-based;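 note: HEK293T cells transfected with LRH-1 and a StAR promoter luciferase reporter; potency for inhibitors that lower LRH-1 driven reporter light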
# Sequence of Nuclear receptor subfamily 5 group A member 2 (O00482 whole entry): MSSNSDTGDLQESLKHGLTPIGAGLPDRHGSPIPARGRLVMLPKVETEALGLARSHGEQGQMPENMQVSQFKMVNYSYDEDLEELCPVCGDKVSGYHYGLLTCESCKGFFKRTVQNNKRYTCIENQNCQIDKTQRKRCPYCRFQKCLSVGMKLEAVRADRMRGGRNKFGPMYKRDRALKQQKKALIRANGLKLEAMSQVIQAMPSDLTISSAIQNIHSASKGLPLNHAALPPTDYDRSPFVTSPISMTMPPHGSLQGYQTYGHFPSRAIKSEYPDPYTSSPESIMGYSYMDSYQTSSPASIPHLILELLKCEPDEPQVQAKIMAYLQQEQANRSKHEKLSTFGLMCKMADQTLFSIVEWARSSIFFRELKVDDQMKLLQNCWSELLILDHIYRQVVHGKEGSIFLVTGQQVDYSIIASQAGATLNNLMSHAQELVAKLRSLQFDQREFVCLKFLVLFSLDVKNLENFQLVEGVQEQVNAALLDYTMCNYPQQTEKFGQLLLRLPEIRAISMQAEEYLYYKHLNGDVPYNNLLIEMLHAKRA
# [26] = StAR promoter reporter inhibition counter-screen, dose response, counter-screen for LRH-1 inverse agonist project, cell-based, luminescence, luciferase reporter (AID 651969); assay type: functional
# Prothrombin = Prothrombin (Homo sapiens, UniProt P00734); test: Thrombin 1536 HTS Dose Response Confirmation. [Related pubchem assays: 1046 (Thrombin 1536 HTS; hits were confirmed in this assay)]; assay type: functional
smiles,measurement,setting,value
COc1cccc(NC(=O)N(C)C[C@@H]2Oc3cc(C#Cc4ccc(F)cc4)ccc3S(=O)(=O)N([C@H](C)CO)C[C@@H]2C)c1,AC50,[1],1.17 µM (active)
same,AC50,[2],> 100 µM (inactive)
same,AC50,[3],1.63 µM (active)
same,AC50,[4],0.95 µM (active)
same,AC50,[5],0.815 µM (active)
CCC(=O)Oc1ccc(-c2nc(-c3cccnc3)no2)cc1,IC50,[6],> 83.3 µM (inactive)
same,EC50,[7],0.435 µM (active)
same,EC50,[8],4.33 µM (active)
same,IC50,[9],28.8 µM (inactive)
same,EC50,[10],7.51 µM (active)
same,EC50,Streptococcus,9.17 µM (active)
O=C(c1cc(COc2ccc(F)cc2F)on1)N1CCN(C2CCCC2)C(=O)C1,CC50,[11],> 40 µM (active)
COc1ccc2nc(Nc3nc(C)c(C(C)=O)s3)sc2c1,EC50,Streptokinase A,> 150 µM (not active)
same,IC50,HEK293 [12],8.11 µM (inactive)
same,IC50,HEK293 [13],> 20 µM (inactive)
same,EC50,HEK293 [14],14.3 µM (active)
same,Ki,fMet-Leu-Phe receptor,> 66.7 µM (inactive)
same,IC50,Beta-galactosidase,> 66.6 µM (inactive)
same,EC50,[10],3.37 µM (active)
same,EC50,Streptococcus,17.8 µM (active)
Cn1ccnc1C(O)c1ccco1 (stereo not given),IC50,[6],> 83.3 µM (inactive)
same,IC50,[9],> 109 µM (inactive)
O=[N+]([O-])c1cc(-c2nc3nc4ccccc4nc3n2CCc2ccccc2)cc([N+](=O)[O-])c1,EC50,[16],> 60 µM (not active)
same,EC50,cells [17],0.273 µM (active)
same,EC50,[18],< 0.1 µM (active)
Cc1ccnc(Nc2nc(-c3sc(C)nc3C)cs2)c1,IC50,Galanin receptor type 3,> 30 µM (inactive)
same,IC50,[19],12.6 µM (inactive)
same,AC50,[20],17.6 µM (active)
same,AC50,[21],25.3 µM (active)
same,EC50,cells [22],> 30 µM (inactive)
same,AC50,[23],10.4 µM (active)
same,AC50,[24],33.5 µM (active)
Cc1onc(-c2cccc(Cl)c2Cl)c1C(=O)ON=C(N)c1ccc([N+](=O)[O-])o1,EC50,[16],11.6 µM (active)
same,EC50,cells [17],0.011 µM (active)
same,IC50,Steroidogenic factor 1,0.0492 µM (active)
same,EC50,[18],< 0.1 µM (active)
same,IC50,[25],0.198 µM (active)
same,IC50,[26],35.9 µM (inactive)
CCc1ccc(CNCCc2ccc(F)cc2)cc1,EC50,[16],> 30 µM (not active)
same,EC50,cells [17],0.043 µM (active)
same,EC50,[18],< 0.1 µM (active)
C[C@@H]1CN([C@@H](C)CO)S(=O)(=O)c2ccc(/C=C/c3ccccc3)cc2O[C@H]1CN(C)C(=O)C1CC1,AC50,[1],3.43 µM (active)
same,AC50,[2],79.2 µM (active)
same,AC50,[3],2.37 µM (active)
same,AC50,[4],2.64 µM (active)
same,AC50,[5],2.18 µM (active)
COc1ccc(S(=O)(=O)NC(C)C(=O)Nc2cccc(C(C)=O)c2)cc1 (stereo not given),Ki,fMet-Leu-Phe receptor,> 66.7 µM (inactive)
same,IC50,Prothrombin,> 50 µM (not active)
COc1cccc(OC)c1OCCCCN1CCC(Cc2ccccc2)CC1,IC50,[6],> 83.3 µM (inactive)
same,IC50,[9],> 109 µM (inactive)
O=C(Nc1ccncc1)Nc1ccc(Br)cc1Cl,EC50,[16],> 60 µM (not active)
same,EC50,cells [17],0.075 µM (active)
same,EC50,[18],< 0.1 µM (active)
COC(=O)C1(S(=O)(=O)c2cccc3nsnc23)CC1,Ki,fMet-Leu-Phe receptor,> 66.7 µM (inactive)
